Tests used:
[1] = test system: adults with moderate to severe atopic dermatitis; test: Phase 2b dose-ranging study in atopic dermatitis (Example 8): efficacy (EASI, IGA-AD, PGIC); assay type: in vivo, human; conditions: for patients achieving IGA0/1 responses at week 16: MI
Protocol: A 16-week, phase 2b, double-blinded, placebo-controlled, dose-finding study assessing efficacy and safety of orismilast modified-release (MR) tablets in adults with moderate-to-severe atopic dermatitis was carried out (NCT05469464). Patients were randomized (1:1:1:1) to orismilast 20, 30, 40 mg or placebo, twice daily. Randomized and dosed patients were included in the Intent-to-Treat Population (used for efficacy and safety). Missing data was handled using Multiple Imputation (MI) for the analysis of primary and secondary efficacy endpoints.
The exploratory objectives are to: • Evaluate pharmacokinetic (PK) and pharmacodynamic parameters relevant to AD • Evaluate the effect of orismilast on the pulmonary status and course of the disease in patients with asthma Primary Endpoint • Percentage change in Eczema Area and Severity Index (EASI) score from Baseline at Week 16. […]

[2] = test system: chronic oxazolone-induced ear skin inflammation; conditions: 10 and 30 mg/kg doses; cited from earlier work
[3] = Chinese healthy volunteer study CIB1353A101: PK; conditions: human, in vivo, oral; CIBI3S3A101 (D1 = 10 mg); N 18; read-out: AUClast, NCA GM (CV %)
CYP3A4 = molecular target: T1, CYP3A4 (Homo sapiens, UniProt P08684); test: CYP3A4 inhibition from clinical studies; assay type: in vivo
T1 construct: from tissue; host or cells: human subjects in vivo (clinical studies); no organ is named
T1 sequence (P08684 whole entry): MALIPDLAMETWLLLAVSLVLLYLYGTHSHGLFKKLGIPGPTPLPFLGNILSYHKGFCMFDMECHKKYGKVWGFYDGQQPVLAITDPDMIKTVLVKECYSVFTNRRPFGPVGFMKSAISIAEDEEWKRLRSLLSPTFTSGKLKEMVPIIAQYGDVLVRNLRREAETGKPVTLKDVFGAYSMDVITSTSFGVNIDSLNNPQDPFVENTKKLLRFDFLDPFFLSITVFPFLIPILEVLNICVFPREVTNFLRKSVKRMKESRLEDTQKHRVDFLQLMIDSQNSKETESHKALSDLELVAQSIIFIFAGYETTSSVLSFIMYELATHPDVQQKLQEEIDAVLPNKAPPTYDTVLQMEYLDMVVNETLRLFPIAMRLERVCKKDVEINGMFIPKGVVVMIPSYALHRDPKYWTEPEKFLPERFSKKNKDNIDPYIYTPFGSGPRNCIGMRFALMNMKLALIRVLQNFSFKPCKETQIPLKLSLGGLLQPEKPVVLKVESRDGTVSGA
Source text: Patients receiving orismilast concurrently with these medicinal • products should be monitored for related AEs, especially if they have a narrow therapeutic window.

SMILES: O=C(Cc1c(Cl)c[n+]([O-])cc1Cl)c1ccc(OC(F)F)c2c1OC1(CCS(=O)(=O)CC1)O2 [orismilast, 2-(3,5-dichloro-1-oxidopyridin-1-ium-4-yl)-1-[7-(difluoromethoxy)-1′,1′-dioxospiro[1,3-benzodioxole-2,4′-thiane]-4-yl]ethanone]
- patients achieving IGA0/1 responses at week 16 ([1]; 20 mg BID (n=58)): 26.3%
- patients achieving IGA0/1 responses at week 16 ([1]; 30 mg BID (n=61)): 24.3%
- mean percentage change in EASI at week 16 ([1]; 30 mg BID, p>0,05): −52.2%
- patients achieving IGA0/1 responses at week 16 ([1]; 40 mg BID (n=59)): 30.9%
- Patient Global Impression of Change of "much improved" or "very much improved" compared to placebo at week 16 ([1]; active arms (20, 30, 40 mg BID)): improved significantly
- ear thickness and inflammation markers [2]: significantly reduced
- AUC(0-t) [3]: 167 ng·h/mL
- inhibition of CYP3A4 (CYP3A4): weak inhibitor
